Experimental data reported in patent US20180015100A1, “COMBINATION PRODUCTS FOR THE TREATMENT OF BACTERIAL INFECTIONS AND METHODS OF PRODUCING OR DOSING OF SAME” (priority 2016, published 2018).
Converted amounts (≈) assume the structure as drawn. Like-named read-outs stand apart in the source and are kept apart here.

How the values were obtained:
[1] = test system: 385 Escherichia coli and 126 Klebsiella pneumoniae isolates; test: MIC, MIC50 and MIC90 by reference broth microdilution against 511 UTI/bloodstream isolates (USA and Europe 2014-2015); format: cell-based; settings: 511 isolates; for MIC90: read-out: MIC90; for EUCAST % I: EUCAST 2016 criteria
[2] = test system: Escherichia coli isolates with an ESBL-phenotype; test: In vitro MIC90 of a panel of approved antibiotics, US surveillance program; format: cell-based; settings: for MIC90: E. coli (n = 124), ESBL-phenotype
[3] = clinical; settings: human, in vivo
Experimental: The twice daily divided dose of study drug was administered approximately 12 hours apart. All subjects randomized to placebo received placebo oral capsules that were identical to study drug capsules and given according to the same dosing schedule and same quantity of capsules as subjects randomized to receive ceftibuten and clavulanate concurrently. All SDs, as well as the first daily dose of the MD period on […] were given while the subject was fasted. […] In addition, blood samples for assessment of trough (pre-dose) concentrations were collected on day 7, day 8, day 9, and alternate days thereafter through study day 17. […] Peak concentration (Cmax), time at which Cmax was observed (Tmax), area under the concentration-time curve to infinity (AUCinf), percent coefficient of variation (% CV), elimination half-life (T1/2), apparent total clearance of the drug from plasma after oral administration (CL/F), and apparent volume of distribution during terminal phase after non-intravenous administration (Vz/F) were determined. […] Similar to above, six subjects were randomized to receive active drug and two were randomized to receive placebo. […] Safety, tolerability and PK were assessed as described above.

[4] = test system: Enterobacter cloacae isolates; test: MIC of cephalosporins alone or with clavulanate/tazobactam; format: cell-based; settings: clavulanate 2:1, tazobactam 4 μg/mL
[5] = test system: Citrobacter freundii isolates; test: as above; format: cell-based; settings: clavulanate 2:1, tazobactam 4 μg/mL
[6] = plasma; cited from earlier work
[7] = test system: Escherichia coli isolates; test: MIC of cephalosporins alone or with clavulanate/tazobactam; format: cell-based; settings: clavulanate 2:1, tazobactam 4 μg/mL
[8] = test system: Klebsiella oxytoca isolates; test: as above; format: cell-based; settings: clavulanate 2:1, tazobactam 4 μg/mL
[9] = test system: beta-lactamase producing E. coli (CTX-M-55; CTX-M-15, TEM-OSBL); test: microbe, parasite or virus in culture; format: cell-based; settings: Escherichia coli
[10] = test system: Enterobacter aerogenes isolates; test: MIC of cephalosporins alone or with clavulanate/tazobactam; format: cell-based; settings: Klebsiella aerogenes, clavulanate 2:1, tazobactam 4 μg/mL
[11] = test system: Klebsiella pneumoniae isolates; test: as above; format: cell-based; settings: clavulanate 2:1, tazobactam 4 μg/mL
[12] = test system: ESBL Klebsiella pneumoniae isolates; test: Killing kinetics (time-kill); format: cell-based; settings: 8X MIC
[13] = test system: E. coli clinical isolate expressing the ESBL CTX-M-15; format: in vivo, mouse; settings: 4 mg/kg, q4 hr
[14] = test system: ESBL Escherichia coli isolates; test: MIC against isolates analyzed in time-kill experiments; format: cell-based
[15] = test system: ESBL Klebsiella pneumoniae isolates; test: as above; format: cell-based
[16] = test system: ESBL Escherichia coli isolates; test: Killing kinetics (time-kill); format: cell-based; settings: 8X MIC
[17] = Escherichia coli, read-out: MIC90

In the case of O=C1CN(/N=C/c2ccc([N+](=O)[O-])o2)C(=O)N1 [Nitrofurantoin], the MIC50 [1] is reported as 16 µg/mL (≈ 67.2 µM) and the MIC90 [1] is reported as 256 µg/mL (≈ 1070 µM).

In the case of CO/N=C(\C(=O)N[C@@H]1C(=O)N2C(C(=O)O)=C(CSc3nc(=O)c(=O)[nH]n3C)CS[C@H]12)c1csc(N)n1 [Ceftriaxone], the “MIC90 relative to CLSI/EUCAST breakpoint for susceptibility” value ([2]; E. coli isolates with ESBL-producing phenotype) is reported as “above the breakpoint for susceptibility”, the MIC90 [2, 17] is reported as greater than 8 µg/mL and the MIC50 [1] is reported as greater than 8 µg/mL. The “EUCAST % I” value [1] was 1.2% and the MIC90 [1] was greater than 8 µg/mL.

With NCC(=O)CCO [amino ketone metabolite of clavulanate] the “% of parent exposure” value [3] was “approximately 8.5%”.

Colistin showed an MIC90 [2] of 0.25 µg/mL.

C[C@H]1COc2c(N3CCN(C)CC3)c(F)cc3c(=O)c(C(=O)O)cn1c23 [Levofloxacin] gave an MIC90 [2, 17] greater than 4 µg/mL.

In the case of CC(C)(O/N=C(\C(=O)N[C@@H]1C(=O)N2C(C(=O)[O-])=C(C[n+]3ccccc3)CS[C@H]12)c1csc(N)n1)C(=O)O [Ceftazidime], the MIC90 [2, 17] is reported as greater than 32 µg/mL, the MIC50 [1] is reported as 16 µg/mL (≈ 29.3 µM) and the “EUCAST % I” value [1] is reported as 16.2%. The MIC90 [1] was greater than 32 µg/mL.

Molecule O=C(O)[C@H]1/C(=C/CO)O[C@@H]2CC(=O)N21 [Clavulanate, clavulanic acid] has an MIC ([4]; AECL1065 (CTX-M-15)) of 64 µg/mL, an MIC ([4]; AECL1067 (CTX-M-3)) of 64 µg/mL and an MIC ([5]; ACFR1034 (CTX-M-15, TEM-OSBL)) of 32 µg/mL. For the same molecule, the MIC ([5]; ACFR1035 (CTX-M-3, TEM-OSBL)) was 32 µg/mL, the Elimination half-life [6] was “approximately 1 h” and the MIC ([7]; AECO001 (no ESBL)) was 32 µg/mL. It also gave an MIC ([7]; AECO1078 (CTX-M-15)) of 32 µg/mL, an MIC ([7]; AECO1147 (CTX-M-15)) of 32 µg/mL and an MIC ([7]; AECO1157 (CTX-M-15, TEM-OSBL)) of 32 µg/mL. It also gave an MIC ([7]; AECO1159 (CTX-M-15)) of 32 µg/mL, an MIC ([7]; AECO1169 (CTX-M-1, TEM-OSBL)) of 32 µg/mL and an MIC ([7]; AECO1172 (CTX-M-14)) of 32 µg/mL. The Tmax ([3]; po, 125 mg, Tmax) was 60 min, the half-life ([3]; po, 125 mg, T½) was 46.5 min and the MIC ([8]; AKOX1005 (SHV-2, TEM-1, DHA-1)) was 32 µg/mL. For the same molecule, the MIC ([8]; AKOX1009 (CTX-M-15)) was 32 µg/mL, the MIC [9] was greater than 32 µg/mL and the MIC ([10]; AEAE1027 (CTX-M-14)) was 32 µg/mL. For the same molecule, the MIC ([10]; AEAE1029 (CTX-M-15)) was 32 µg/mL, the MIC ([11]; AKPN1159 (SHV-12)) was 32 µg/mL and the MIC ([11]; AKPN1161 (SHV-7)) was 16 µg/mL. The MIC ([11]; AKPN1162 (CTX-M-15, SHV-12)) was 32 µg/mL, the MIC ([11]; AKPN1166 (CTX-M-14, SHV-12)) was 32 µg/mL and the MIC ([11]; AKPN1167 (SHV-2)) was 16 µg/mL.

In the case of C[C@@H](O)[C@H]1C(=O)N2C(C(=O)O)=C(S[C@@H]3CN[C@H](C(=O)N(C)C)C3)[C@H](C)[C@H]12 [Meropenem, meropenem], the “Change in Log10 CFU/mL From Inoculum (0 hr)” value ([12]; AKPN1159, 2 h) is reported as −2.64 Log10 CFU/mL, the “Change in Log10 CFU/mL From Inoculum (0 hr)” value ([12]; AKPN1159, 4 h) is reported as −4.16 Log10 CFU/mL and the “Change in Log10 CFU/mL From Inoculum (0 hr)” value ([12]; AKPN1159, 6 h) is reported as −4.73 Log10 CFU/mL. For the same molecule, the “Change in Log10 CFU/mL From Inoculum (0 hr)” value ([12]; AKPN1159, 24 h) was −6.33 Log10 CFU/mL, the “Change in Log10 CFU/mL From Inoculum (0 hr)” value ([12]; AKPN1162, 2 h) was −3.01 Log10 CFU/mL and the “Change in Log10 CFU/mL From Inoculum (0 hr)” value ([12]; AKPN1162, 4 h) was −3.58 Log10 CFU/mL. For the same molecule, the “Change in Log10 CFU/mL From Inoculum (0 hr)” value ([12]; AKPN1162, 6 h) was −3.66 Log10 CFU/mL, the “Change in Log10 CFU/mL From Inoculum (0 hr)” value ([12]; AKPN1162, 24 h) was −6.48 Log10 CFU/mL and the “bacterial CFU, bladder” value [13] was 3.75 log10 CFU. The “bacterial CFU, kidneys” value [13] was 3.11 log10 CFU, the “bacterial CFU, urine” value [13] was 3.25 log10 CFU and the MIC ([14]; AECO1156 (CTXM-15, TEM-OSBL)) was 0.03 µg/mL (≈ 0.0782 µM). For the same molecule, the MIC ([14]; AECO1157 (CTXM-15, TEM-OSBL)) was 0.03 µg/mL (≈ 0.0782 µM), the MIC ([14]; AECO1162 (CTX-M-14)) was 0.03 µg/mL (≈ 0.0782 µM) and the MIC ([14]; AECO1166 (SHV-12)) was 0.016 µg/mL (≈ 0.0417 µM). For the same molecule, the MIC ([15]; AKP1162 (SHV-12, CTX-M-15)) was 0.06 µg/mL (≈ 0.156 µM), the MIC ([15]; AKPN1159 (SHV-12)) was 0.03 µg/mL (≈ 0.0782 µM) and the MIC90 [2, 17] was 0.03 µg/mL (≈ 0.0782 µM). For the same molecule, the MIC50 [1] was 0.03 µg/mL (≈ 0.0782 µM), the “EUCAST % I” value [1] was 3.3% and the MIC90 [1] was 0.12 µg/mL (≈ 0.313 µM). For the same molecule, the “Change in Log10 CFU/mL From Inoculum (0 hr)” value ([16]; AECO1156, 2 h) was −3.41 Log10 CFU/mL, the “Change in Log10 CFU/mL From Inoculum (0 hr)” value ([16]; AECO1156, 4 h) was −4.08 Log10 CFU/mL and the “Change in Log10 CFU/mL From Inoculum (0 hr)” value ([16]; AECO1156, 6 h) was −5.69 Log10 CFU/mL. For the same molecule, the “Change in Log10 CFU/mL From Inoculum (0 hr)” value ([16]; AECO1156, 24 h) was −5.69 Log10 CFU/mL, the “Change in Log10 CFU/mL From Inoculum (0 hr)” value ([16]; AECO1157, 2 h) was −3.49 Log10 CFU/mL and the “Change in Log10 CFU/mL From Inoculum (0 hr)” value ([16]; AECO1157, 4 h) was −4.98 Log10 CFU/mL. For the same molecule, the “Change in Log10 CFU/mL From Inoculum (0 hr)” value ([16]; AECO1157, 6 h) was −4.38 Log10 CFU/mL, the “Change in Log10 CFU/mL From Inoculum (0 hr)” value ([16]; AECO1157, 24 h) was −5.98 Log10 CFU/mL and the “Change in Log10 CFU/mL From Inoculum (0 hr)” value ([16]; AECO1162, 2 h) was −2.91 Log10 CFU/mL. For the same molecule, the “Change in Log10 CFU/mL From Inoculum (0 hr)” value ([16]; AECO1162, 4 h) was −3.42 Log10 CFU/mL, the “Change in Log10 CFU/mL From Inoculum (0 hr)” value ([16]; AECO1162, 6 h) was −4.39 Log10 CFU/mL and the “Change in Log10 CFU/mL From Inoculum (0 hr)” value ([16]; AECO1162, 24 h) was −6.08 Log10 CFU/mL. For the same molecule, the “Change in Log10 CFU/mL From Inoculum (0 hr)” value ([16]; AECO1166, 2 h) was −4.17 Log10 CFU/mL, the “Change in Log10 CFU/mL From Inoculum (0 hr)” value ([16]; AECO1166, 4 h) was −6.08 Log10 CFU/mL and the “Change in Log10 CFU/mL From Inoculum (0 hr)” value ([16]; AECO1166, 6 h) was −6.08 Log10 CFU/mL. The “Change in Log10 CFU/mL From Inoculum (0 hr)” value ([16]; AECO1166, 24 h) was −6.08 Log10 CFU/mL.
